Data: US8575197B2, “Pyrolinone derivative and pharmaceutical composition comprising the same” (Shionogi & Co., Ltd., priority 2008, dated 2013)

Target: human P2X3 receptor (Homo sapiens (Human), UniProt P56373)
Assay: P2X3 receptor inhibition, ATP-evoked Fluo-3 calcium fluorescence (FDSS 3000)
Format: cell-based
Conditions: C6BU-1 cell transfected with human P2X3 receptor gene; ATP-evoked Fluo-3 fluorescence
Summary of the method: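 C6BU-1 cells stably transfected with human P2X3, loaded with 4 μM Fluo-3-AM for 1 h at 37 °C in HEPES buffer pH 7.5 with probenecid. Compound added 5 min before 40 nM ATP solution; fluorescence followed 3 min. IC50 from ratio of peak post-ATP to baseline fluorescence.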

Sequence of human P2X3 receptor (P56373 whole entry): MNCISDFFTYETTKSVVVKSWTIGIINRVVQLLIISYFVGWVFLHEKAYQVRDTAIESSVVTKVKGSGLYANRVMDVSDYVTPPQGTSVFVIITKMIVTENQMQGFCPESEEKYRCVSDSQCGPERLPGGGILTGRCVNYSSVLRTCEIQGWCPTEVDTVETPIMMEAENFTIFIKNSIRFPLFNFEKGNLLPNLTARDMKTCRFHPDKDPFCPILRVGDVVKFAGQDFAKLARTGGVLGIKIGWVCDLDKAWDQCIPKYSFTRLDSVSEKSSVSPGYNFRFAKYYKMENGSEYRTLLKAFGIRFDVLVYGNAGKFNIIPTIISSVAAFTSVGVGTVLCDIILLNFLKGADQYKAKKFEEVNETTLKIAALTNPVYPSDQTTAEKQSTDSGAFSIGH

Compound	IC50
CC(C)(C)C(=O)C1=C(O)C(=O)N(c2ccc(-c3ccon3)cc2)C1c1ccccc1OCC(N)=O (stereo not shown) [Compound I-144]	365 nM
COCCOc1ccccc1C1C(C(=O)CC(C)C)=C(O)C(=O)N1c1ccc(-c2ccc(C)o2)cc1 (stereo not shown) [Compound I-381]	7 nM
CC(C)C(=O)C1=C(O)C(=O)N(c2ccc(-c3ccsc3)cc2)C1c1ccccc1OCCN(C)C (stereo not shown) [Compound I-158]	23 nM
COc1ncccc1C1c2c(C(C)(C)C)n[nH]c2C(=O)N1c1ccc(-c2ccco2)nc1 (stereo not shown) [II-271]	153 nM
COc1ccc(C(=O)C2=C(O)C(=O)N(c3ccc(C4=NCCS4)cc3)C2c2ccccc2OC)cc1 (stereo not shown) [Compound I-028]	75 nM
COCCOc1ncccc1C1c2c(C(C)(C)C)n[nH]c2C(=O)N1c1ccc(SC)cc1 (stereo not shown) [II-034]	46 nM
Cc1ccc(-c2ccc(N3C(=O)C(O)=C(C(=O)CC(C)C)C3c3cccnc3C(=O)NCCN(C)C)cc2)s1 (stereo not shown) [Compound I-583]	10 nM
CNC(=O)c1n[nH]c2c1C(c1ccccc1OC)N(c1ccc(-c3ccsc3)cc1)C2=O (stereo not shown) [II-181]	301 nM
CC(C)C(=O)C1=C(O)C(=O)N(c2ccc(-c3ccsc3)cc2)C1c1ccccc1C(=O)N(C)C (stereo not shown) [Compound I-245]	47 nM
COCc1ccccc1C1C(C(=O)C(C)C)=C(O)C(=O)N1c1ccc(-c2cscn2)cc1 (stereo not shown) [Compound I-418]	593 nM
COCOc1ccccc1C1C(C(=O)C(C)C)=C(O)C(=O)N1c1ccc(-c2noc(C)n2)cc1 (stereo not shown) [Compound I-311]	121 nM
COCCOc1ccccc1C1c2c(C(C)(C)C)n[nH]c2C(=O)N1c1ccc(-c2noc(C)n2)cc1 (stereo not shown) [II-025]	15 nM
COc1ncccc1C1C(C(=O)C(C)(C)C)=C(O)C(=O)N1c1ccc(-c2ccoc2)cc1 (stereo not shown) [Compound I-118]	282 nM
COC1=C(C(=O)CC(C)C)C(c2ccccc2OC)N(c2ccc(-c3ccc(C)s3)cc2)C1=O (stereo not shown) [Compound I-329]	578 nM
Cc1ccc(-c2ccc(N3C(=O)C(O)=C(C(=O)C(C)C)C3c3cccnc3OCCCO)cc2)s1 (stereo not shown) [Compound I-568]	66 nM
CC(C)(C)c1n[nH]c2c1C(c1ccccc1OCC(N)=O)N(c1ccc(-c3ccsc3)cc1)C2=O (stereo not shown) [II-169]	4 nM
COc1ccccc1C1c2c(C(C)(C)C)nn(C(=O)OC(C)(C)C)c2C(=O)N1c1ccc(Br)cc1 (stereo not shown) [II-211]	135 nM
CC(C)c1n[nH]c2c1C(c1ccccc1C(=O)N(C)C)N(c1ccc(-c3ccsc3)cc1)C2=O (stereo not shown) [II-093]	2 nM
COc1ccccc1C1c2c(C(C)(C)C)n[nH]c2C(=O)N1c1ccc(OC(F)(F)F)cc1 (stereo not shown) [II-097]	358 nM
COCCOc1ccccc1[C@@H]1C(C(=O)C(C)C)=C(O)C(=O)N1c1ccc(-c2ccsc2)cc1 [Compound I-222]	6 nM
CC(C)(C)c1n[nH]c2c1C(c1ccccc1CO)N(c1ccc(-c3ccon3)cc1)C2=O (stereo not shown) [II-113]	838 nM
COc1ccc2sc(N3C(=O)C(O)=C(C(=O)C(C)(C)C)C3c3ccccc3OC)nc2c1 (stereo not shown) [Compound I-038]	926 nM
COc1ccccc1C1c2c(C(C)(C)C)n[nH]c2C(=O)N1c1ccc(SC(F)(F)F)cc1 (stereo not shown) [II-004]	378 nM
CC(C)C(=O)C1=C(O)C(=O)N(c2ccc(-c3ccsc3)cc2)C1c1ccccc1OCC(=N)NO (stereo not shown) [Compound I-220]	5 nM
Cc1nc(-c2ccc(N3C(=O)C(O)=C(C(=O)C(C)C)C3c3ccccc3OCC#N)cc2)no1 (stereo not shown) [Compound I-508]	133 nM

Compound	IC50
Cc1nc(-c2ccc(N3C(=O)C(O)=C(C(=O)C4CCCC4)C3c3ccccc3OCC(C)C)cc2)no1 (stereo not shown) [Compound I-519]	33 nM
Cc1nc(-c2ccc(N3C(=O)C(O)=C(C(=O)C(C)C)C3c3ccccc3COC(C)C)cc2)no1 (stereo not shown) [Compound I-539]	62 nM
CNC(=O)c1ccccc1C1c2c(C(C)C)n[nH]c2C(=O)N1c1ccc(-c2ccsc2)cc1 (stereo not shown) [II-092]	2 nM
CC(C)C(=O)C1=C(O)C(=O)N(c2ccc(-c3ccon3)cc2)C1c1ccccc1OCCO (stereo not shown) [Compound I-191]	279 nM
Cc1ccc(-c2ccc(N3C(=O)C(O)=C(C(=O)C(C)C)C3c3ccccc3C(=O)N(C)CCO)cc2)o1 (stereo not shown) [Compound I-585]	157 nM
CC(C)CC(=O)C1=C(O)C(=O)N(c2ccc(C3=NCCS3)cc2)C1c1ccccc1OC(C)C (stereo not shown) [Compound I-413]	42 nM
Cc1ncccc1C1c2c(C(C)(C)C)n[nH]c2C(=O)N1c1ccc(-c2ccsc2)cc1 (stereo not shown) [II-123]	431 nM
COc1ccc(-c2n[nH]c3c2C(C2CCCCC2)N(c2ccc4[nH]ccc4c2)C3=O)cc1 (stereo not shown) [II-055]	548 nM
C[S+]([O-])CCOc1ccccc1C1c2c(C(C)(C)C)n[nH]c2C(=O)N1c1ccc(-c2ccsc2)cc1 (stereo not shown) [II-076]	12 nM
COCCOc1ncccc1[C@H]1C(C(=O)C(C)C)=C(O)C(=O)N1c1ccc(-c2ccsc2)cc1 [Compound I-433]	425 nM
COc1ccccc1C1c2c(C(C)(C)CO)n[nH]c2C(=O)N1c1ccc(-c2cccs2)cc1 (stereo not shown) [II-218]	5 nM
CC(C)(C)C(=O)C1=C(O)C(=O)N(c2ccc(-c3ccon3)cc2)C1c1ccccc1OC(F)(F)F (stereo not shown) [Compound I-019]	132 nM
CC(C)(C)c1n[nH]c2c1C(c1ccccc1OCCO)N(c1ccc(-c3ccoc3)cc1)C2=O (stereo not shown) [II-124]	8 nM
COc1ccc(-c2n[nH]c3c2C(c2ccccc2OCCO)N(c2nc4ccc(OC)cc4s2)C3=O)cc1 (stereo not shown) [II-118]	429 nM
COC(=O)n1nc(C(C)(C)C)c2c1C(=O)N(c1ccc(Br)cc1)C2c1ccccc1OC (stereo not shown) [II-229]	82 nM
COCCOc1ccccc1C1C(C(=O)CC(C)C)=C(O)C(=O)N1c1ccc(-c2ccoc2)cc1 (stereo not shown) [Compound I-348]	55 nM
Cc1ncccc1C1c2c(C(C)(C)C)n[nH]c2C(=O)N1c1ccc(-c2cccs2)cc1 (stereo not shown) [II-121]	464 nM
Cc1cc(-c2ccc(N3C(=O)C(O)=C(C(=O)C(C)C)C3c3ccccc3S(C)(=O)=O)cc2)cs1 (stereo not shown) [Compound I-507]	101 nM
CC(C)(C)C(=O)C1=C(O)C(=O)N(c2ccc(-c3ccon3)cc2)C1c1ccccc1OC(F)F (stereo not shown) [Compound I-064]	137 nM
CC(C)C(=O)C1=C(O)C(=O)N(c2ccc(-c3ccsc3)cc2)C1c1ccccc1OC(F)(F)F (stereo not shown) [Compound I-302]	34 nM
COCCOc1ncccc1C1c2c(C(C)(C)C)n[nH]c2C(=O)N1c1ccc(-c2ccoc2)cc1 (stereo not shown) [II-038]	14 nM
COCCOc1ncccc1C1C(C(=O)C(C)C)=C(O)C(=O)N1c1ccc(-c2cccs2)cc1 (stereo not shown) [Compound I-228]	15 nM
CC(C)CC(=O)C1=C(O)C(=O)N(c2ccc(-c3ccon3)cc2)C1c1ccccc1OC(F)(F)F (stereo not shown) [Compound I-308]	193 nM
COc1ncccc1C1C(C(=O)CC(C)(C)C)=C(O)C(=O)N1c1ccc(-c2ccsc2)cc1 (stereo not shown) [Compound I-462]	427 nM
COCCOc1ccccc1C1C(C(=O)C(C)C)=C(O)C(=O)N1c1ccc(-c2cc(C)on2)cc1 (stereo not shown) [Compound I-481]	378 nM

Compound	IC50
CCOC(=O)C1c2c(C(C)C)n[nH]c2C(=O)N1c1ccc(-c2ccsc2)cc1 (stereo not shown) [II-183]	460 nM
COc1ccccc1C1c2c(C(C)(C)C)n[nH]c2C(=O)N1c1ccc(-c2cccn2C)cc1 (stereo not shown) [II-205]	811 nM
COCc1ccccc1C1C(C(=O)CC(C)C)=C(O)C(=O)N1c1ccc(-c2coc(C)n2)cc1 (stereo not shown) [Compound I-392]	946 nM
COc1ccccc1C1c2c(C(C)(C)CO)n[nH]c2C(=O)N1c1ccc(-c2cccs2)cn1 (stereo not shown) [II-264]	11 nM
CC(C)COc1ccccc1C1C(C(=O)C(C)C)=C(O)C(=O)N1c1ccc(-c2ccon2)cc1 (stereo not shown) [Compound I-450]	36 nM
Cc1cc(-c2ccc(N3C(=O)C(O)=C(C(=O)C(C)C)C3c3ccccc3OCCO)cc2)cs1 (stereo not shown) [Compound I-256]	23 nM
COC(=O)COc1ccccc1C1C(C(=O)C(C)(C)C)=C(O)C(=O)N1c1ccc(-c2cccs2)cc1 (stereo not shown) [Compound I-113]	12 nM
COc1ccccc1C1C(C(=O)CC(C)C)=C(O)C(=O)N1c1ccc(-c2ccc(C)o2)cc1 (stereo not shown) [Compound I-383]	36 nM
CC(C)(C)c1n[nH]c2c1C(c1cccnc1OCCO)N(c1ccc(-c3cccs3)cc1)C2=O (stereo not shown) [II-042]	10 nM
CSc1ccc(N2C(=O)C(O)=C(C(=O)C(C)(C)C)C2c2ccccc2OCCO)cc1 (stereo not shown) [Compound I-081]	151 nM
CCC(CC)(CO)c1n[nH]c2c1C(c1ccccc1OC)N(c1ccc(-c3ccon3)cc1)C2=O (stereo not shown) [II-145]	33 nM
CC(C)c1n[nH]c2c1C(c1ccccc1N)N(c1ccc(-c3ccsc3)cc1)C2=O (stereo not shown) [II-081]	189 nM
CSc1ccc(N2C(=O)C(O)=C(C(=O)C(C)C)C2c2ccccc2OCC2CC2)cc1 (stereo not shown) [Compound I-589]	32 nM
COCCOc1ncccc1C1C(C(=O)CC(C)(C)C)=C(O)C(=O)N1c1ccc(-c2ccsc2)cc1 (stereo not shown) [Compound I-463]	127 nM
COCCN(C)C(=O)c1ccccc1C1C(C(=O)C(C)C)=C(O)C(=O)N1c1ccc(-c2ccc(C)o2)cc1 (stereo not shown) [Compound I-586]	254 nM
COCOc1ccccc1C1C(C(=O)C(C)C)=C(O)C(=O)N1c1ccc(-c2ccoc2)cc1 (stereo not shown) [Compound I-232]	24 nM
COCCOc1ccccc1C1C(C(=O)C(C)(C)C)=C(O)C(=O)N1c1ccc(-c2noc(C)n2)cc1 (stereo not shown) [Compound I-129]	91 nM
COc1ccc(F)cc1C1C(C(=O)C(C)C)=C(O)C(=O)N1c1ccc(-c2ccsc2)cc1 (stereo not shown) [Compound I-452]	26 nM
CC(C)COc1ccccc1C1C(C(=O)C2CCCC2)=C(O)C(=O)N1c1ccc(-c2ccon2)cc1 (stereo not shown) [Compound I-513]	65 nM
CC(C)(C)c1n[nH]c2c1C(c1ccccc1OCC#N)N(c1ccc(-c3ccon3)cc1)C2=O (stereo not shown) [II-108]	15 nM
CC(C)(C)c1n[nH]c2c1C(c1cccc[n+]1[O-])N(c1ccc(-c3ccsc3)cc1)C2=O (stereo not shown) [II-074]	32 nM
CC(C)(C)C(=O)C1=C(O)C(=O)N(c2ccc(-c3ccoc3)cc2)C1c1cccnc1OCCO (stereo not shown) [Compound I-165]	95 nM
COCCOc1ncccc1C1C(C(=O)C(C)C)=C(O)C(=O)N1c1ccc(SC)cc1 (stereo not shown) [Compound I-485]	218 nM
